Assay results reported in PMC12332266 (Frontiers in Pharmacology, 2025).
Where two headings read alike, the source gives them in different places.

How the values were obtained:
[1] = system: hiPSC-CM (iCell Cardiomyocytes^2); assay: RTCA CardioECR assessment (impedance and electrophysiology parameters); conditions: for Beating Rate MEC / Beating rate (BR) MEC / Contractility Amplitude MEC / Field Potential Duration MEC / RTCA, MEC (BR) / Spike Amplitude (SA) MEC: 72 h
Protocol: (§1) Culture media change was performed every 2 days.
After seeding on fibronectin-coated xCELLigence ePlates (Agilent Technologies, Inc. Santa Clara, CA, USA), iCell^2 CM were monitored continuously through impedance electrodes. The following impedance parameters were measured: Cell Index (CI, measure of cell “health” and monolayer integrity), beating rate (BR) and amplitude (CI Amplitude, magnitude of contraction). Electrophysiology-like parameters (Field Potential Duration (FPD), considered as a surrogate for QT in in vivo studies, and Spike Amplitude (SA), depolarization induced by Na^+ channel opening) were measured starting from day 4–6, following the monolayer formation. […] All RTCA CardioECR data were double normalized (DMSO control and the baseline) with no further statistical group comparison for the normalized parameters. The variability of the data within the treatment groups was assessed by standard deviation.

[2] = system: hiPSC-CM (iCell Cardiomyocytes^2); assay: Intracellular miRNA expression by RT-qPCR in hiPSC-CM pellets after 72-hour treatment
Protocol: as §1
Total RNA was extracted from hiPSC-CM using the miRNeasy 96 Kit (Qiagen, Hilden, Germany) following the manufacturer’s recommendations. After the extraction, RNA purity was assessed by NanoDrop™ 8000 Spectrophotometer (Thermo Fisher Scientific Inc.). 5–10 ng/μL of RNA per sample were reverse transcribed and pre-amplified by using the TaqMan™ Advanced miRNA cDNA Synthesis Kit (Thermo Fisher Scientific Inc.). The synthesized cDNA was used for RT-qPCR with selected TaqMan™ assays (Thermo Fischer Scientific Inc.). RT-qPCR was carried out following the Applied Biosciences TaqMan miRNA expression assay protocol on a ViiA7 instrument (Thermo Fisher Scientific, Inc.). […] Therefore, to maximize the number of drugs and concentrations, explored in the same study, we pooled the triplicates for intracellular profiling of miRNAs. Therefore, no statistical analysis was performed on the data of miRNA profiling in the pellets of hiPSC-CM.
Following RTCA CardioECR assessment, hiPSC-CM cell pellets were collected, and total RNA was extracted and purified to investigate miRNAs upregulation by RT-qPCR. […] For the initial assessment of intracellular miRNAs in 12 different treatments, encompassing various drug classes, we used a panel of 17 miRNAs, which we selected from the publicly available data focusing mainly on in vitro models and structural cardiotoxicants (Supplementary Table S2).

[3] = ref extensive literature search, cited from earlier work

Structure (SMILES)	RTCA, MEC (CI) ([1]; human)	Beating Rate MEC ([1]; human)	Beating rate (BR) MEC ([1]; human)	Contractility Amplitude MEC ([1]; human)	Field Potential Duration MEC ([1]; human) [µM]	RTCA, MEC (BR) ([1]; human)	Spike Amplitude (SA) MEC ([1]; human)	miRNAs hiPSC-CM pellet, MEC overall [2] [µM]	miRNAs upregulated at the MEC overall (hiPSC-CM pellet) [2]	Cmax total ([3]; Supplementary Table 1) [µM]	Cmax total ([3]; Table 1) [µM]	RTCA, MEC (CI) ([1]; hiPSC-CM, change ≥20%, Table 2)	intracellular miRNA upregulation in hiPSC-CM, in words ([2]; human, 72 h)
COc1cccc2c1C(=O)c1c(O)c3c(c(O)c1C2=O)C[C@@](O)(C(C)=O)C[C@@H]3O[C@H]1C[C@H](N)[C@H](O)[C@H](C)O1 [Daunorubicin]	0.1 µM (CI, BR)	0.1µM (+21%)	0.1 (+21%) µM	0.3µM (-82%)	0.1	0.1 µM (CI, BR)	0.1µM (-93%)	0.1	miR-96 -5p, miR-185-3p, miR-187-3p, miR-365a-5p	0.310 to 7.84	0.31 to 7.84		
COc1cccc2c1C(=O)c1c(O)c3c(c(O)c1C2=O)C[C@@](O)(C(=O)CO)C[C@@H]3O[C@H]1C[C@H](N)[C@@H](O)[C@H](C)O1 [Epirubicin]		0.3 µM	0.3 µM	0.3 µM	0.3	0.3 µM (CI, BR (Q))	0.3 µM	0.3	miR-7-5p, miR-29a-5p, miR-126-3p, miR-146b-5p, miR-182-5p, miR-184, miR-185-3p, miR-187-3p, miR-208b-3p, miR-365a-5p	16.6	16.60	0.3 µM (CI, BR (Q))	
C#Cc1cccc(Nc2ncnc3cc(OCCOC)c(OCCOC)cc23)c1 [Erlotinib]		0.77 µM	0.77 µM			0.77 µM (BR)	0.23 µM	0.23	miR-1-3p, miR-21-5p, miR-34a-5p, miR-208b-3p	3.15 to 4.8	3.15 to 4.80		upregulation of three miRNAs (hsa-miR-146b-5p, hsa-miR-182-5p, hsa-miR-365a-5p)
COc1cc([C@@H]2c3cc4c(cc3[C@@H](O[C@@H]3O[C@@H]5CO[C@@H](C)O[C@H]5[C@H](O)[C@H]3O)[C@H]3COC(=O)[C@H]23)OCO4)cc(OC)c1O [Etoposide]					3		0.3 µM	0.1	miR-187-3p	33.4	33.40		
